This is an account of results in US20240166626A1, “Compounds and Methods for Preventing, Treating, or Ameliorating Airway Disease” (THOMAS JEFFERSON UNIVERSITY, priority 2021, published 2024).

The subject of this test is HASM cells. The test is described as follows: Human airway smooth muscle cell scratch (migration) assay. Type of test: cell-based. The following applies: 1 μM DFPQ, PDGF, 24 hours, FIG. 4F. As to the method: FIGS. 4A-4F: DFPQ inhibits internalization of the β2AR and protects from agonist induced desensitization in cell and tissue models. FIG. 4A: Effect of DFPQ on agonist-promoted internalization of the β2AR. HEK 293 cells stably expressing FLAG-β2AR were pre-incubated with 0.1% DMSO or 10 μM DFPQ for 30 min and then stimulated with the indicated concentrations of ISO for up to 60 min. Cells were fixed and receptor surface expression was measured by ELISA. […] Cells were lysed and cAMP production was measured by ELISA. […] FIG. 4C: Mouse airway tissue were contracted with 1 μM methacholine for 5 min and then incubated overnight with 1 μM ISO±1 μM DFPQ. Airway slices were washed, re-contracted with methacholine, and incubated with ISO for 1 hour (n=4 bronchioles). Airway contractility was measured by luminal area of bronchioles by microscopy at various times. FIG. 4D: Bar graphs represent normalized ISO-promoted relaxation from methacholine contraction on day 2 of treatment at the 25 min timepoint from 4 tracheal rings. *, p<0.05 FIG. 4E: HASM cells were scratched and incubated overnight in PDGF containing serum free media. Cells were imaged to evaluate migration into the scratched area. FIG. 4F: Densitometric analysis of migration into scratched area (n=3 experiments). ***, p<0.001; **, p<0.01
Cell culture GLOSENSOR™ cells (Promega) were maintained in Dulbecco's modified Eagle's medium (DMEM) containing 10% fetal bovine serum (FBS) and 200 μg/ml Hygromycin B. […]® ADRB2 cells (DiscoveRx) were maintained with the AssayComplete™ Cell Culture kit (DiscoveRx catalog #92-3107G). […] Cells were read every three minutes for 18 minutes on a PolarStar Optima plate reader (BMG) to establish peak signal. ISO was added to each well to a final concentration of 1 μM, and luminescence was determined in kinetic mode at room temperature (23-25° C.). Response was analyzed relative to forskolin (7 μM) and alprenolol (1 μM) as positive and negative controls, respectively. […] Luminescence was determined at room temperature (23-25° C.) on a PolarStar Optima plate reader (BMG). […]

For the molecule `Fc1ccc(Nc2nc(NC3CCCCC3)c3ccccc3n2)cc1F` [DFPQ, N^4-cyclohexyl-N^2-(3,4-difluorophenyl)quinazoline-2,4-diamine], the “effect on β-agonist (SAL or ISO) reduction of HASM migration” value is “significantly enhanced”.
